Source: US5916774A, “D-aminoacylase” (Daicel Chemical Industries, Ltd., priority 1997, dated 1999)
Read-outs that look alike come from different tables or passages of the source.

What was measured:
[1] = test system: Amycolatopsis orientalis IFO 12806; test: Induction of D-aminoacylase production by inducers in culture; type: cell-based; settings: for Specific activity / Total activity / Activity: crude enzyme solution of cells cultured with 0.1% inducer in ISP-2 medium, 30° C., 72 h; for Activity: 20 mM N-acetyl-D-methionine, pH 7.5, 10 min
Experimental: This microbial strain was cultured in ISP-2 liquid medium as used in Example 1 supplemented with or without N-acetyl-DL-methionine or DL-valine (Kanto Kagaku) (0.1% each) as the enzyme inducer with shaking at 160 rpm at 30° C. for 72 h.
After the incubation, the culture was centrifuged at 8000 rpm (7000×g) for 20 min with a Hitachi Koki refrigerated centrifuge to collect microbial cells. The cells were washed with 50 mM Tris-HCl buffer (pH 7.5) and then centrifuged again with the same centrifuge to harvest the cells to be used in the following processes. The cells were stored at -20° C.
The stored cells were suspended in 20 ml of 50 mM Tris-HCl (pH 7.5), ultrasonicated at 190 W for 10 min, and centrifuged with a Hitachi Koki refrigerated centrifuge at 14,000 rpm (20,000×g) for 20 min. The supernatant thus obtained was used as the crude enzyme solution.
The enzymatic reaction was performed in a total volume of 1.0 ml of a reaction system containing 20 mM N-acetyl-D-methionine, 50 mM Tris-HCl buffer (pH 7.5), 1 mM CoCl2, and 100 μl of the enzyme solution at 30° C. for 10 min. The reaction was terminated by adding a TCA reaction terminating solution.

[2] = test system: D-aminoacylase derived from Amycolatopsis orientalis IFO 12806; test: Influences of various metallic salts and reagents on D-aminoacylase activity; type: biochemical
Experimental: (§1) The enzyme activity was assayed according to TNBS method [Tokuyama, S., Hatano, K. and Takahashi, T., Biosci. Biotech. Biochem. 58, pp24 (1994)]. That is, a sample solution containing amino acid was added to 0.5 ml of the solution (C) (0.1M Na2 B4 O7), and brought up to a volume of 1.0 ml. To this mixture was added […] of 0.11M TNBS solution, and the resulting mixture was quickly mixed. Five min thereafter, absorption at 420 nm was measured.
In Table 5, the term "PCMB" means p-chloromercuribenzoic acid.

[3] = test system: D-aminoacylase derived from Amycolatopsis orientalis IFO 12806; test: Substrate specificity of D-aminoacylase; type: biochemical; settings: 20 mM substrate, 3 h; for Action of the enzyme on the substrate: pH 7.5, 30° C.; for Specific activity (%): N-acetyl-D-methionine taken as 100%, 50 mM Tris-HCl pH 7.5, 30° C.
Experimental: The enzymatic reaction was carried out in a total volume of 1.0 ml of a reaction system containing 20 mM N-acetyl-D-methionine (Sigma), 50 mM Tris-HCl buffer (pH 7.5), 1 mM CoCl2, and 100 μl of the enzyme solution at 30° C. for 60 min. The reaction was terminated by adding 0.5 ml of a TCA reaction terminating solution according to Tsai et al. (containing 0.11M trichloroacetic acid, 0.22M sodium acetate, and 0.33M acetic acid).
as §1
Substrate specificity of this enzyme was compared to, taking substrate specificity for N-acetyl-D-methionine as 100%, N-acetyl-D-valine, N-acetyl-D-phenylalanine, N-acetyl-D-leucine, N-acetyl-D-tryptophan, N-acetyl-D-asparagine, N-acetyl-L-methionine, N-acetyl-D-leucine, and N-acetyl-L-valine. The enzyme activity was assayed in 50 mM Tris-HCl buffer (pH 7.5) containing 100 μl of the enzyme solution and 20 mM of each substrate (total volume of 1.0 ml) at 30° C. for 3 h.

[4] = metallic salt 1 mM, pH 7.5, 30° C., 60 min, no addition 0.25
[5] = metallic salt 10 mM, no addition = 100
[6] = metallic salt 10 mM, pH 7.5, 30° C., 60 min, no addition 0.25
[7] = metallic salt 1 mM, no addition = 100
[8] = reagent 1 mM, no addition = 100
[9] = reagent 1 mM, pH 7.5, 30° C., 60 min, no addition 0.22
[10] = reagent 10 mM, no addition = 100
[11] = reagent 10 mM, pH 7.5, 30° C., 60 min, no addition 0.22

| SMILES | Methionine produced, concentration 1 mM [2, 4] [mM] | Specific activity (%), concentration 10 mM [2, 5] [%] | Methionine produced, concentration 10 mM [2, 6] [mM] | Specific activity (%), concentration 1 mM [2, 7] [%] | Action of the enzyme on the substrate [3] | Specific activity (%) [3] [%] | also measured |
| --- | --- | --- | --- | --- | --- | --- | --- |
| CC(C)C(N)C(=O)O (racemic) [DL-valine] | – | – | – | – | – | – | Induction of D-aminoacylase ([1]; DL-valine compared with N-acetyl-DL-methionine as inducer): induced more strongly; Specific activity [1]: 144.0 mU/mg; Total activity [1]: 36.0 U; Activity [1]: 3.9 U/ml |
| CSCCC(NC(C)=O)C(=O)O (racemic) [N-acetyl-DL-methionine] | – | – | – | – | – | – | Specific activity [1]: 36.0 mU/mg; Total activity [1]: 5.1 U; Activity [1]: 1.6 U/ml |
| [Ba+2].[Cl-].[Cl-] [Ba^2+ (BaCl2), BaCl2] | 0.19 | 176 | 0.44 | – | – | – | – |
| [Ca+2].[Cl-].[Cl-] [Ca^2+ (CaCl2), CaCl2] | 0.45 | 208 | 0.52 | 180 | – | – | Effect on enzyme activity ([2]; 1 mM): significantly promoted; Effect on enzyme activity ([2]; 10 mM): did not inhibit |
| [Cl-].[Cl-].[Co+2] [Co^2+ (CoCl2), CoCl2] | 0.52 | 108 | 0.27 | 208 | – | – | Effect on enzyme activity ([2]; 1 mM): significantly promoted; Effect on enzyme activity ([2]; 10 mM): did not do so |
| [Cl][Cu][Cl] [Cu^2+ (CuCl2), CuCl2] | 0 | 0 | 0 | 0 | – | – | Effect on enzyme activity ([2]; concentration not given): inhibited |
| O=C(O)CN(CCN(CC(=O)O)CC(=O)O)CC(=O)O [EDTA.2Na, reference compound] | – | – | – | – | – | – | Effect on enzyme activity [2]: inhibited; Specific activity (%), concentration 1 mM [2]: 0%; Specific activity (%), concentration 10 mM [2]: 0%; Methionine produced, concentration 1 mM ([2]; pH 7.5): 0 mM; Methionine produced, concentration 10 mM ([2]; pH 7.5): 0 mM |
| [Cl][Fe][Cl] [F^e2+ (FeCl2), FeCl2] | 0.13 | 0 | 0 | 52 | – | – | – |
| [Cl][Hg][Cl] [Hg^2+ (HgCl2), HgCl2] | 0 | 0 | 0 | 0 | – | – | Effect on enzyme activity ([2]; concentration not given): inhibited |
| [Cl-].[K+] [K^+ (KCl), KCl] | 0.13 | 84 | 0.21 | 52 | – | – | – |
| [Cl-].[Cl-].[Mg+2] [Mg^2+ (MgCl2), MgCl2] | 0.32 | 92 | 0.32 | 128 | – | – | – |
| [Cl][Mn][Cl] [Mn^2+ (MnCl2), MnCl2] | 0.24 | 0 | 0 | 96 | – | – | – |
| CC(=O)N[C@H](C)C(=O)O [N-acetyl-D-alanine] | – | – | – | – | acted somewhat | 16 | – |
| CC(=O)N[C@H](CC(N)=O)C(=O)O [N-acetyl-D-asparagine] | – | – | – | – | acted somewhat | 19 | – |
| CC(=O)N[C@H](CC(C)C)C(=O)O [N-acetyl-D-leucine] | – | – | – | – | acted well | 78 | – |
| CSCC[C@@H](NC(C)=O)C(=O)O [N-acetyl-D-methionine] | – | – | – | – | acted well | 100 | – |
| CC(=O)N[C@H](Cc1ccccc1)C(=O)O [N-acetyl-D-phenylalanine] | – | – | – | – | acted somewhat | 36 | – |
| CC(=O)N[C@H](Cc1c[nH]c2ccccc12)C(=O)O [N-acetyl-D-tryptophan] | – | – | – | – | acted somewhat | 54 | – |
| CC(=O)N[C@@H](C(=O)O)C(C)C [N-acetyl-D-valine] | – | – | – | – | – | 33 | – |
| CC(=O)N[C@@H](CC(C)C)C(=O)O [N-acetyl-L-leucine] | – | – | – | – | did not act | 0 | – |
| CSCC[C@H](NC(C)=O)C(=O)O [N-acetyl-L-methionine] | – | – | – | – | did not act | 0 | – |
| CC(=O)N[C@H](C(=O)O)C(C)C [N-acetyl-L-valine] | – | – | – | – | did not act | 0 | – |
| CCN1C(=O)C=CC1=O [N-ethyl-maleimide, reference compound] | – | – | – | – | – | – | Specific activity (%), concentration 1 mM [2, 8]: 45%; Methionine produced, concentration 1 mM [2, 9]: 0.1 mM; Specific activity (%), concentration 10 mM [2, 10]: 0%; Methionine produced, concentration 10 mM [2, 11]: 0 mM |
| [Cl-].[Na+] [Na^+ (NaCl), NaCl] | – | – | – | – | – | – | Specific activity (%), concentration 1 mM [2]: 84%; Specific activity (%), concentration 10 mM [2]: 152%; Methionine produced, concentration 1 mM ([2]; pH 7.5): 0.21 mM; Methionine produced, concentration 10 mM ([2]; pH 7.5): 0.36 mM |
| [Cl][Ni][Cl] [Ni^2+ (NiCl2), NiCl2] | 0.12 | 68 | 0.17 | 48 | – | – | – |
| O=C(O)c1cc[c]([Hg][Cl])cc1 [PCMB, p-chloromercuribenzoic acid, reference compound] | – | – | – | – | – | – | Effect on enzyme activity ([2]; concentration not given): inhibited; Specific activity (%), concentration 1 mM [2, 8]: 0%; Methionine produced, concentration 1 mM [2, 9]: 0 mM; Specific activity (%), concentration 10 mM [2, 10]: 0%; Methionine produced, concentration 10 mM [2, 11]: 0 mM |
| [Cl-].[Cl-].[Zn+2] [Zn^2+ (ZnCl2), ZnCl2] | 0 | 0 | 0 | 0 | – | – | – |
| OC(CS)C(O)CS (stereo not drawn) [dothiothreito, reference compound] | – | – | – | – | – | – | Specific activity (%), concentration 1 mM [2, 8]: 77%; Methionine produced, concentration 1 mM [2, 9]: 0.17 mM; Specific activity (%), concentration 10 mM [2, 10]: 68%; Methionine produced, concentration 10 mM [2, 11]: 0.15 mM |
| O=C(O)CI [iodoactate, iodoacetate, reference compound] | – | – | – | – | – | – | Effect on enzyme activity [2]: inhibited; Specific activity (%), concentration 1 mM [2]: 64%; Specific activity (%), concentration 10 mM [2]: 50%; Methionine produced, concentration 1 mM ([2]; pH 7.5): 0.14 mM; Methionine produced, concentration 10 mM ([2]; pH 7.5): 0.11 mM |
